According to patent US4284635A, “Analgesic 1,2,4,5-tetra-alkyl-4-arylpiperidines” (Eli Lilly and Company, priority 1978, dated 1981):

Experiment: rat-tail jerk assay (rats subjected to a heat sensation)
Format: in vivo
Details: subcutaneous
Description: The analgesic activity of a number of compounds provided by this invention has been determined in the standard rat-tail jerk assay and the mouse writhing assay. The results in the mouse writhing assay are presented as the effective dose in mg./kg. of the tested compound required to inhibit induced writhing in the test animals by fifty percent (ED50). Results are presented in Column II for both subcutaneous (S.C.) and oral (p.o.) administration of the test compound recited in Column I.
Column III presents the effects of the claimed compounds on rats subjected to a heat sensation. The compounds recited in column I were administered subcutaneously to the test animals. The test results are reported as the minimum effective dose (MED) of compound in mg./kg. needed to delay response to the pain stimulus by one second compared to control animals.

Compound | Rat Tail Jerk MED 1 sec. (minimum effective dose needed to delay response to the pain stimulus by one second compared to control animals) [mg/kg]
CC1CC(C)(c2cccc(O)c2)C(C)CN1C (centres unmarked) [1,2,4,5-Tetramethyl-4-(3-hydroxyphenyl)piperidine] | 1
COc1cccc(C2(C)CC(C)N(C)CC2C)c1 (centres unmarked) [1,2,4,5-Tetramethyl-4-(3-methoxyphenyl)piperidine] | 10
CCCC1(c2cccc(OC)c2)CC(C)N(C)CC1C (centres unmarked) [1,2,5-Trimethyl-4-n-propyl-4-(3-methoxyphenyl)piperidine] | 2
CCCC1(c2cccc(O)c2)CC(C)N(C)CC1C (centres unmarked) [1,2,5-trimethyl-4-n-propyl-4-(3-hydroxyphenyl)piperidine] | 20
CCOC(=O)C1(c2ccccc2)CCN(C)CC1 [Meperidine, reference compound] | 3.0
